The term IC50 denotes the concentration that gives 50% inhibition. Lower therefore signals higher potency.

Molecules are shown by their SMILES.

Sequence of PI3K delta (O00329 whole entry): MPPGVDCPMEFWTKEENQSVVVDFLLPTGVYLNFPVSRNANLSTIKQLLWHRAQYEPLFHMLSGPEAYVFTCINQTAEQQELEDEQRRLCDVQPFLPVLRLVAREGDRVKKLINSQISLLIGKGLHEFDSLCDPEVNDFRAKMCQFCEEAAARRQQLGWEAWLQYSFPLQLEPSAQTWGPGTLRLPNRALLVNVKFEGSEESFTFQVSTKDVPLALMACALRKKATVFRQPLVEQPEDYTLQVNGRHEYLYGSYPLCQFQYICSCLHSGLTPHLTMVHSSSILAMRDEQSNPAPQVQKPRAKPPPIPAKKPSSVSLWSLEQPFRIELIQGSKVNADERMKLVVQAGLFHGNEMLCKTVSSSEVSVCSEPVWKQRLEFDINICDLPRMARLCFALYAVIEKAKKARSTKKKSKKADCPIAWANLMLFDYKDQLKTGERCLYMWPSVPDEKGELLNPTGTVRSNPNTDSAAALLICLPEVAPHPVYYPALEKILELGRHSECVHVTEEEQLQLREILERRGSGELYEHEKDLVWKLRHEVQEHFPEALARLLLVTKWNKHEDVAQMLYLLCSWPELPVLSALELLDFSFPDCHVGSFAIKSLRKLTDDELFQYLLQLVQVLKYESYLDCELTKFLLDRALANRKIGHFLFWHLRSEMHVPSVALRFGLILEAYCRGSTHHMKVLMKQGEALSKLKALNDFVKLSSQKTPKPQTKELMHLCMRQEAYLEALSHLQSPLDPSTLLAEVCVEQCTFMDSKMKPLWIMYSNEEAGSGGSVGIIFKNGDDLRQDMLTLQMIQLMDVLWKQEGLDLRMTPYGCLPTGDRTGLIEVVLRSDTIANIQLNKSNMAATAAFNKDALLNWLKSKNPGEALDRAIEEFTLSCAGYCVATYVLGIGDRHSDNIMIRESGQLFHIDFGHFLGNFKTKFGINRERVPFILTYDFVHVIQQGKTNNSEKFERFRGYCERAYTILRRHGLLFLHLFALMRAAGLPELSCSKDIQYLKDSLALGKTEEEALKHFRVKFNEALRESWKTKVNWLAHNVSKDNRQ
Sequence of PI3K delta (P27986 whole entry partner): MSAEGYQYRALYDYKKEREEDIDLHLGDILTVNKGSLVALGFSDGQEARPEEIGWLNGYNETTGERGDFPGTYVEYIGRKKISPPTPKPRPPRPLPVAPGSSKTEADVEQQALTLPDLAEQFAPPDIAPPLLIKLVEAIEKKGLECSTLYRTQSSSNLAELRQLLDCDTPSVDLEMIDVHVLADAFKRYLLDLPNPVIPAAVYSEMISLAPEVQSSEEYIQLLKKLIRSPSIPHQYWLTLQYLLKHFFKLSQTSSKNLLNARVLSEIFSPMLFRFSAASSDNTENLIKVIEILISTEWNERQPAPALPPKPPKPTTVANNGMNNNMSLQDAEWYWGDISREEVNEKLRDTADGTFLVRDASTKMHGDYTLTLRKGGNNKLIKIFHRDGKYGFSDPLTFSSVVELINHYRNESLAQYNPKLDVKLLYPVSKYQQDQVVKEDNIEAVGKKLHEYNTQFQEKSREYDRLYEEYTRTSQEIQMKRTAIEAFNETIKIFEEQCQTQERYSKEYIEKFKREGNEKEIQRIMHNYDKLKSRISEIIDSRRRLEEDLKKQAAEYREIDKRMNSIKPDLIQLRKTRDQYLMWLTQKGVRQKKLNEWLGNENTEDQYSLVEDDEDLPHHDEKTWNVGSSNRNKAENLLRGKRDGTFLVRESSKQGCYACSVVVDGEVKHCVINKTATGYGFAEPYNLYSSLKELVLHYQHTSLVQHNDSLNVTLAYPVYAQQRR

The test has as its target PI3K delta (Homo sapiens, UniProt O00329). In words: Luciferase-coupled chemiluminescence kinase assay (ATP consumption, KinaseGlo). Type of test: biochemical. In outline:
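ATP consumption measured by KinaseGlo luciferase chemiluminescence after a 2 h reaction at ambient temperature, with ATP at or below the kinase KM. Ten inhibitor concentrations per curve; IC50 from four-parameter nonlinear regression.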
For `CCn1c(C(=O)NCC2CC2)nc2c(N3CCC4(CC3)C(=O)Nc3ccccc34)ncnc21` [Compound 163, N-(cyclopropylmethyl)-9-ethyl-6-(2-oxo-1,2-dihydro-1′H-spiro[indole-3,4′-piperidin]-1′-yl)-9H-purine-8-carboxamide], the IC50 is under 50 nM. `CCn1c(C(=O)NCC(C)C)nc2c(N3CCC4(CC3)C(=O)Nc3ccccc34)ncnc21` [Compound 164, 9-ethyl-N-(2-methylpropyl)-6-(2-oxo-1,2-dihydro-1′H-spiro[indole-3,4′-piperidin]-1′-yl)-9H-purine-8-carboxamide] came in with an IC50 of under 50 nM.

As to `Cn1c(-n2cnc(C(F)(F)F)c2)nc2c(N3CCC(n4c(=O)[nH]c5ccccc54)CC3)ncnc21` [Compound 165, 1-(1-{9-methyl-8-[4-(trifluoromethyl)-1H-imidazol-1-yl]-9H-purin-6-yl}piperidin-4-yl)-1,3-dihydro-2H-benzimidazol-2-one], the IC50 was in the range of 50 to 250 nM. As for `Cn1c(-c2cc[nH]c2)nc2c(N3CCC(n4c(=O)[nH]c5ccccc54)CC3)ncnc21` [Compound 166, 1-{1-[9-methyl-8-(1H-pyrrol-3-yl)-9H-purin-6-yl]piperidin-4-yl}-1,3-dihydro-2H-benzimidazol-2-one], the figure is 500 to 1500 nM.

The compound `C=C(C)c1cn(-c2nc3c(N4CCC(n5c(=O)[nH]c6ccccc65)CC4)ncnc3n2C)cn1` [Compound 167, 1-(1-{9-methyl-8-[4-(1-methylethenyl)-1H-imidazol-1-yl]-9H-purin-6-yl}piperidin-4-yl)-1,3-dihydro-2H-benzimidazol-2-one] showed an IC50 of under 50 nM. As for `Cn1c(C(=O)NCC2CC2)nc2c(N3CCC4(CC3)C(=O)Nc3c(Br)cccc34)ncnc21` [Compound 168, 6-(7-bromo-2-oxo-1,2-dihydro-1′H-spiro[indole-3,4′-piperidin]-1′-yl)-N-(cyclopropylmethyl)-9-methyl-9H-purine-8-carboxamide], the IC50 was under 50 nM.

The compound `Cn1c(C(=O)NCC2CC2)nc2c(N3CCC(n4c(=S)[nH]c5ccccc54)CC3)ncnc21` [Compound 169, N-(cyclopropylmethyl)-9-methyl-6-[4-(2-thioxo-2,3-dihydro-1H-benzimidazol-1-yl)piperidin-1-yl]-9H-purine-8-carboxamide] came in with an IC50 of 50 to 250 nM. `Cn1c(C(=O)NCC2CC2)nc2c(N3CCC4(CC3)CC(=O)Nc3ccccc3O4)ncnc21` [Compound 170, N-(cyclopropylmethyl)-9-methyl-6-(4-oxo-4,5-dihydro-1′H,3H-spiro[1,5-benzoxazepine-2,4′-piperidin]-1′-yl)-9H-purine-8-carboxamide] displayed an IC50 of 250 to 500 nM. On to `O=C(NCC1CC1)c1nc2c(N3CCC(n4c(=O)[nH]c5ccccc54)CC3)ncnc2n1C1CC1` [Compound 171, 9-Cyclopropyl-N-(cyclopropylmethyl)-6-[4-(2-oxo-2,3-dihydro-1H-benzimidazol-1-yl)piperidin-1-yl]-9H-purine-8-carboxamide], for which the IC50 was in the range of 50 to 250 nM.

Turning to `Cn1c(C(=O)NCC2CC2)nc2c(N3CCC(n4c(=O)[nH]c5ccccc54)C3)ncnc21` (stereo not shown) [Compound 172, N-(cyclopropylmethyl)-9-methyl-6-[3-(2-oxo-2,3-dihydro-1H-benzimidazol-1-yl)pyrrolidin-1-yl]-9H-purine-8-carboxamide], the IC50 lay within 500 to 1500 nM.

As to `CC(C)CNC(=O)c1nc2c(N3CCC(n4c(=O)[nH]c5ccccc54)CC3)ncnc2n1C1CC1` [Compound 173, 9-cyclopropyl-N-(2-methylpropyl)-6-[4-(2-oxo-2,3-dihydro-1H-benzimidazol-1-yl)piperidin-1-yl]-9H-purine-8-carboxamide], the IC50 lay in the range of 250 to 500 nM. As to `CC(C)c1nnc(-c2nc3c(N4CCC5(CC4)C(=O)Nc4ccccc45)ncnc3n2C)o1` [Compound 174, 1′-{9-methyl-8-[5-(1-methylethyl)-1,3,4-oxadiazol-2-yl]-9H-purin-6-yl}spiro[indole-3,4′-piperidin]-2(1H)-one], the IC50 was under 50 nM. As for `O=C(NCC1CC1)c1nc2c(N3CCC4(CC3)C(=O)Nc3ccccc34)ncnc2n1C1CC1` [Compound 175, 9-cyclopropyl-N-(cyclopropylmethyl)-6-(2-oxo-1,2-dihydro-1′H-spiro[indole-3,4′-piperidin]-1′-yl)-9H-purine-8-carboxamide], the figure is 50 to 250 nM; as for `CC(C)CNC(=O)c1nc2c(N3CCC4(CC3)C(=O)Nc3ccccc34)ncnc2n1C1CC1` [Compound 176, 9-cyclopropyl-N-(2-methylpropyl)-6-(2-oxo-1,2-dihydro-1′H-spiro[indole-3,4′-piperidin]-1′-yl)-9H-purine-8-carboxamide], 50 to 250 nM; as for `CCCc1nnc(-c2nc3c(N4CCC5(CC4)C(=O)Nc4ccccc45)ncnc3n2C)o1` [Compound 177, 1′-[9-methyl-8-(5-propyl-1,3,4-oxadiazol-2-yl)-9H-purin-6-yl]spiro[indole-3,4′-piperidin]-2(1H)-one], under 50 nM.

The compound `Cn1c(-c2cnn(CCO)c2)nc2c(N3CCC(n4c(=O)[nH]c5ccccc54)CC3)ncnc21` [Compound 178, 1-{1-(8-[1-(2-hydroxyethyl)-1H-pyrazol-4-yl]-9-methyl-9H-purin-6-yl}piperidin-4-yl)-1,3-dihydro-2H-benzimidazol-2-one] gave a half-maximal inhibitory concentration (IC50) of 50 to 250 nM. Regarding `Cn1c(-c2cocn2)nc2c(N3CCC(n4c(=O)[nH]c5ccccc54)CC3)ncnc21` [Compound 179, 1-{1-[9-methyl-8-(1,3-oxazol-4-yl)-9H-purin-6-yl]piperidin-4-yl}-1,3-dihydro-2H-benzimidazol-2-one], the IC50 was 500 to 1500 nM.

Take `CCn1c(-c2nnc(C(C)C)o2)nc2c(N3CCC(n4c(=O)[nH]c5ccccc54)CC3)ncnc21` [Compound 180, 1-(1-{9-ethyl-8-[5-(1-methylethyl)-1,3,4-oxadiazol-2-yl]-9H-purin-6-yl}piperidin-4-yl)-1,3-dihydro-2H-benzimidazol-2-one]: the IC50 is under 50 nM.

In turn, `CCOC(=O)Cn1cc(-c2nc3c(N4CCC(n5c(=O)[nH]c6ccccc65)CC4)ncnc3n2C)cn1` [Compound 181, ethyl (4-{9-methyl-6-[4-(2-oxo-2,3-dihydro-1H-benzimidazol-1-yl)piperidin-1-yl]-9H-purin-8-yl}-1H-pyrazol-1-yl)acetate] came in with an IC50 of 250 to 500 nM. In turn, `CCc1nnc(-c2nc3c(N4CCC5(CC4)C(=O)Nc4ccccc45)ncnc3n2C)o1` [Compound 182, 1′-[8-(5-ethyl-1,3,4-oxadiazol-2-yl)-9-methyl-9H-purin-6-yl]spiro[indole-3,4′-piperidin]-2(1H)-one] showed a half-inhibitory concentration (IC50) of under 50 nM.

The compound `CC(C)CNC(=O)c1nc2c(N3CCC(n4c(=O)[nH]c5ccccc54)CC3)ncnc2n1CC(F)(F)F` [Compound 183, N-(2-methylpropyl)-6-[4-(2-oxo-2,3-dihydro-1H-benzimidazol-1-yl)piperidin-1-yl]-9-(2,2,2-trifluoroethyl)-9H-purine-8-carboxamide] came in with an IC50 of 250 to 500 nM. Compound `Cn1c(-c2nnc(C3CC3)o2)nc2c(N3CCC4(CC3)C(=O)Nc3ccccc34)ncnc21` [Compound 184, 1′-[8-(5-cyclopropyl-1,3,4-oxadiazol-2-yl)-9-methyl-9H-purin-6-yl]spiro[indole-3,4′-piperidin]-2(1H)-one] came in with an IC50 of under 50 nM. On to `CCn1c(C(=O)NCC2CCC2)nc2c(N3CCC(n4c(=O)[nH]c5ccccc54)CC3)ncnc21` [Compound 185, N-(cyclobutylmethyl)-9-ethyl-6-[4-(2-oxo-2,3-dihydro-1H-benzimidazol-1-yl)piperidin-1-yl]-9H-purine-8-carboxamide], for which the IC50 was under 50 nM. The compound `CCn1c(C(=O)N2CC[C@@H](F)C2)nc2c(N3CCC(n4c(=O)[nH]c5ccccc54)CC3)ncnc21` [Compound 186, 1-[1-(9-ethyl-8-{[(3R)-3-fluoropyrrolidin-1-yl]carbonyl}-9H-purin-6-yl)piperidin-4-yl]-1,3-dihydro-2H-benzimidazol-2-one] had an IC50 of under 50 nM. In the case of `CCn1c(C(=O)NC(C)C2CC2)nc2c(N3CCC(n4c(=O)[nH]c5ccccc54)CC3)ncnc21` (stereo not shown) [Compound 187, N-(1-cyclopropylethyl)-9-ethyl-6-[4-(2-oxo-2,3-dihydro-1H-benzimidazol-1-yl)piperidin-1-yl]-9H-purine-8-carboxamide], the half-maximal inhibitory concentration (IC50) was under 50 nM.

For `CCn1c(C(=O)NCC2(O)CC2)nc2c(N3CCC(n4c(=O)[nH]c5ccccc54)CC3)ncnc21` [Compound 188, 9-ethyl-N-[(1-hydroxycyclopropyl)methyl]-6-[4-(2-oxo-2,3-dihydro-1H-benzimidazol-1-yl)piperidin-1-yl]-9H-purine-8-carboxamide], the IC50 was under 50 nM. In the case of `CCn1c(C(=O)N2CC(F)(F)C2)nc2c(N3CCC(n4c(=O)[nH]c5ccccc54)CC3)ncnc21` [Compound 189, 1-(1-{8[(3,3-difluoroazetidin-1-yl)carbonyl]-9-ethyl-9H-purin-6-yl}piperidin-4-yl)-1,3-dihydro-2H-benzimidazol-2-one], the IC50 was under 50 nM. `CCn1c(C(=O)NCC(C)(C)C)nc2c(N3CCC(n4c(=O)[nH]c5ccccc54)CC3)ncnc21` [Compound 190, N-(2,2-dimethylpropyl)-9-ethyl-6-[4-(2-oxo-2,3-dihydro-1H-benzimidazol-1-yl)piperidin-1-yl]-9H-purine-8-carboxamide] registered an IC50 of under 50 nM.

For `CCn1c(C(=O)N2CCC(F)(F)C2)nc2c(N3CCC(n4c(=O)[nH]c5ccccc54)CC3)ncnc21` [Compound 191, 1-(1-{8-[(3,3-difluoropyrrolidin-1-yl)carbonyl]-9-ethyl-9H-purin-6-yl}piperidin-4-yl)-1,3-dihydro-2H-benzimidazol-2-one], the IC50 is under 50 nM. `CCNC(=O)c1nc2c(N3CCC(n4c(=O)[nH]c5ccccc54)CC3)ncnc2n1CC` [Compound 192, N,9-diethyl-6-[4-(2-oxo-2,3-dihydro-1H-benzimidazol-1-yl)piperidin-1-yl]-9H-purine-8-carboxamide] yielded a concentration for half-maximal inhibition (IC50) of 50 to 250 nM. In turn, `CCCNC(=O)c1nc2c(N3CCC(n4c(=O)[nH]c5ccccc54)CC3)ncnc2n1CC` [Compound 193, 9-ethyl-6-[4-(2-oxo-2,3-dihydro-1H-benzimidazol-1-yl)piperidin-1-yl]-N-propyl-9H-purine-8-carboxamide] showed an IC50 of under 50 nM.

For the origin of these results see patent US20140058103A1, “Inhibitors of PI3K-Delta and Methods of Their Use and Manufacture” (Exelixis, Inc., priority 2010, published 2014).
